# Where two headings read alike, the source gives them in different places. Square brackets hold non-standard residues; d marks the D form. Peptide text beside a SMILES is read from it. AEEA = NCCOCCOCC(=O)O
# What was measured:
# [1] = test system: Pseudomonas aeruginosa ATCC® 27853™; format: cell-based; set-up: Log reduction of Pseudomonas: dose or concentration left out as unconfirmed; conditions: for Log reduction of Pseudomonas: starting inoculum 1×10^6 CFU/ml, 60 to 180 minute incubation; for Effects of Peptide Compounds on Pseudomonas aeruginosa ATCC ® 27853 ™: Table 6, 5 × 10^3 CFU/ml unless italicized = 1 × 10^5 CFU/ml
# [2] = test system: E. coli ATCC® strain 25922™; format: cell-based, Escherichia coli; set-up: Log reduction of E. coli: dose or concentration left out as unconfirmed; Effects of Peptide Compounds on Escherichia coli ATCC ® 25922 ™: unit not given here; conditions: for Log reduction of E. coli: 25, starting inoculum 1×10^6 CFU/ml, 60 to 180 minute incubation; for Effects of Peptide Compounds on Escherichia coli ATCC ® 25922 ™: Table 6, 5 × 10^3 CFU/ml unless italicized = 1 × 10^5 CFU/ml
# Procedure: The three peptide compounds BCC01-5RMP (SEQ ID NO:21), BCC02-5RMP (SEQ ID NO:22), and BCC03-5RMP (SEQ ID NO:23) were assayed for in vitro bactericidal activity against Pseudomonas aeruginosa, Escherichia coli, Salmonella typhimurium, and Acinetobacter baumannii. […] The CFU remaining at the end of 60 to 180 minute incubation was determined, and the data plotted as a log reduction in CFU/ml.
# Tables 4-6 show the results of various peptides and peptide compounds against P. aeruginosa and E. coli strains. Tables 4 and 5 show the results of an investigation of the effects of peptide or peptide compounds BCC03-5RMP (SEQ ID NO:23), BCC03-MP (SEQ ID NO:24) and BCC03-5R (SEQ ID NO:20) against P. aeruginosa ATCC® strain 27853™ and E. coli ATCC® strain 25922™ (American Type Culture Collection, Manassas, Va.). […] Table 6 compares the activity of several other compounds, including the “5R” versions of BCC01, i.e., SEQ ID NO:18 (which comprises SEQ ID NO:1 with five additional arginines), the “5R” version of BCC02 (i.e., SEQ ID NO:19, which comprises SEQ ID NO:2 with five additional arginines), and BCC03-5RMP (SEQ ID NO:23), and BCC03-MP (SEQ ID NO:24, i.e., without the five additional R residues). The data generally indicate the superiority of BCC03-5RMP (SEQ ID NO:23) against E. coli, and the superiority of the 5R or 5RMP versions of the peptide over the “AEEA only” peptide against P. aeruginosa.
# [3] = LPS binding, Limulus Amebocyte Lysate (LAL) assay; set-up: species or system Pseudomonas
# Procedure: (§1) The well-characterized response of RAW264.7 macrophage cells was used to produce tumor necrosis-factor-alpha (TNF-α) in response to LPS to determine whether the peptides could dampen the release of this cytokine. […] Importantly, pre-treatment (3 hours prior to LPS addition) as well as post-treatment of the RAW264.7 cells (3 hours post LPS addition) with peptide dampened the cytokine release. […] The finding that the novel peptides bind and neutralize the effect of Pseudomonas LPS is of critical importance since this ensures that the novel therapeutic peptide compounds described herein will not only kill the bacteria, but will also neutralize the LPS endotoxin released by the bacteria which plays such an important role in the rapid progression of sepsis.
# (§2) BCC01-5RMP (SEQ ID NO:21), BCC02-5RMP (SEQ ID NO:22), and BCC03-5RMP (SEQ ID NO:23) were tested for their ability to bind lipopolysaccharide (LPS) using the limulus amebocyte lysate method (LAL). […] There was no statistical difference in their ability to bind LPS using the LAL technique. The ability of the peptides to neutralize LPS was assessed by determining their ability to attenuate the release of tumor necrosis factor-alpha (TNF-α) from LPS-stimulated RAW264.7 cells (a mouse macrophage cell line). […] No significant differences were observed between the three peptides to neutralize LPS as measured by cytokine release.
# [4] = test system: TNF-α release from LPS-stimulated RAW264.7 cells; assay: LPS neutralization: TNF-α release from LPS-stimulated RAW264.7 cells; format: cell-based, mouse; conditions: Pseudomonas LPS
# Procedure: as §1, §2
# [5] = test system: P. aeruginosa (ATCC® 27853™); assay: Pseudomonas keratitis model in the mouse eye; format: in vivo; conditions: C57/BL mice, topical, concentrations between 0.25 and 0.75 mg/ml
# Procedure: A circular wound was created on the mouse cornea by removing the epithelium and infected with 10^5 colony forming units (CFU) of P. aeruginosa (ATCC® 27853™ (American Type Culture Collection, Manassas, Va.)). Infected wounds were treated with saline (0.9% sodium chloride, vehicle control) or saline containing indicated concentrations of peptide every 15 minutes for 2 hours, then every 30 minutes for 3 hours on the first day. Infected wounds were treated twice on the second day and once on the third day. Mice were killed at 48 hours post-infection, and CFU/eye were quantified. The means were plotted and are representative of 5 to 9 mice per group. Mann Whitney test was performed for each group as compared to the saline control group. *P=0.014.
# A circular wound (2 mm) was created on the mouse cornea by removing the epithelium and infecting the wound with 10^5 CFU of P. aeruginosa (ATCC® 27853™ (American Type Culture Collection, Manassas, Va.)). Infected wounds were treated with saline or saline containing indicated concentrations of peptide every 15 minutes for 2 hours, then every 30 minutes for 3 hours on the first day. Infected wounds were treated twice on the second day and once on the third day. Mice were killed at 48 hours post-infection, and the colony forming units per eye (CFU/eye) were quantified. The means are plotted and are representative of 5 to 9 mice per group. Mann Whitney test was performed for each group as compared to the saline control group.
# For FIGS. 15-17, in vivo bactericidal activity of the peptides was also investigated using the standard Pseudomonas keratitis model in the mouse eye (FIGS. 15-17). Peptides 120-146QR-5RMP (SEQ ID NO:32), 120-146WH (SEQ ID NO:31), and 120-146WR (SEQ ID NO: 30) were applied topically at doses of 2, 5, 10, and 20 mg/ml to the wounded cornea that had been infected with 10^5 CFU of Pseudomonas aeruginosa. The efficacies of the peptides were compared to treatment with the vehicle control. Mice were euthanized at 48 hours post infection, and the CFU/eye were quantified.
# [6] = test system: Pseudomonas clinical isolate B64; assay: BIOSCREEN C™ growth assay, antibiotic and peptide combinations; format: cell-based, Pseudomonas aeruginosa
# Procedure: Cefotaxime (Cefo) and peptide combinations included a constant amount of Cefotaxime (2.81 μg/ml) with suboptimal amounts of peptide (0, 0.34, 1.01, and 3.04 μg/ml).
# The peptide and antibiotics were set up in the wells of the microtiter plate at starting ratios of MIC equivalents of antibiotic:peptide at 3:1, 1:1, and 1:3. They were serially diluted to concentrations well below suboptimal/sublethal levels of the antibiotic and peptide. The organism was added (1×10^5 CFU/well), the BIOSCREEN C™ assay (Growth Systems USA, Piscataway, N.J.) was performed, and data was collected over 24 hours.
smiles,measurement,setting,value
CC[C@H](C)[C@H](NC(=O)[C@H](CC(C)C)NC(=O)[C@H](C)NC(=O)CNC(=O)CNC(=O)[C@H](CS)NC(=O)[C@H](Cc1ccccc1)NC(=O)[C@H](Cc1c[nH]cn1)NC(=O)[C@H](CCCNC(=N)N)NC(=O)CNC(=O)[C@H](CCC(N)=O)NC(=O)[C@H](CC(N)=O)NC(=O)[C@H](CCCNC(=N)N)NC(=O)[C@H](CCCNC(=N)N)NC(=O)[C@H](CCCNC(=N)N)NC(=O)[C@H](CCCNC(=N)N)NC(=O)COCCOCCNC(=O)COCCOCCN)C(=O)N[C@@H](Cc1c[nH]cn1)C(=O)N[C@@H](C)C(=O)N[C@@H](CCCNC(=N)N)C(=O)N[C@@H](Cc1ccccc1)C(=O)N[C@H](C(=O)N[C@@H](CCSC)C(=O)N[C@H](C(=O)N[C@@H](C)C(=O)N[C@@H](C)C(=O)N[C@@H](CO)C(=O)N[C@@H](CS)C(=O)N[C@@H](Cc1ccccc1)C(=O)N[C@@H](CCC(N)=O)C(=O)N[C@@H](CCCNC(=N)N)C(=O)O)[C@@H](C)O)C(C)C [BCC01-5RMP] (H-[AEEA][AEEA]RRRRNQGRHFCGGALIHARFVMTAASCFQR-OH),Log reduction of Pseudomonas,[1],5
same,Log reduction of E. coli,[2],3
same,binding of Pseudomonas LPS,[3],bound Pseudomonas LPS
same,neutralization of LPS: release of TNF-α,[4],attenuate the release of TNF-α
CC[C@H](C)[C@H](NC(=O)[C@H](CC(C)C)NC(=O)[C@H](C)NC(=O)CNC(=O)CNC(=O)[C@H](CO)NC(=O)[C@H](Cc1ccccc1)NC(=O)[C@H](Cc1c[nH]cn1)NC(=O)[C@H](CCCNC(=N)N)NC(=O)CNC(=O)[C@H](CCC(N)=O)NC(=O)[C@H](CC(N)=O)NC(=O)[C@H](CCCNC(=N)N)NC(=O)[C@H](CCCNC(=N)N)NC(=O)[C@H](CCCNC(=N)N)NC(=O)[C@H](CCCNC(=N)N)NC(=O)COCCOCCNC(=O)COCCOCCN)C(=O)N[C@@H](Cc1c[nH]cn1)C(=O)N[C@@H](C)C(=O)N[C@@H](CCCNC(=N)N)C(=O)N[C@@H](Cc1ccccc1)C(=O)N[C@H](C(=O)N[C@@H](CCSC)C(=O)N[C@H](C(=O)N[C@@H](C)C(=O)N[C@@H](C)C(=O)N[C@@H](CO)C(=O)N[C@@H](CS)C(=O)N[C@@H](Cc1ccccc1)C(=O)N[C@@H](CCC(N)=O)C(=O)N[C@@H](CCCNC(=N)N)C(=O)O)[C@@H](C)O)C(C)C [BCC02-5RMP] (H-[AEEA][AEEA]RRRRNQGRHFSGGALIHARFVMTAASCFQR-OH),Log reduction of Pseudomonas,[1],4
same,Log reduction of E. coli,[2],4
same,binding of Pseudomonas LPS,[3],bound Pseudomonas LPS
same,neutralization of LPS: release of TNF-α,[4],attenuate the release of TNF-α
same,bacteria in the eye (CFU/eye) at 48 hours post-infection,[5],effectively killed all bacteria and cured the infection
same,sensitivity of the bacterium to Cefotaxime on addition of peptide,"[6]; 3.04 μg/ml of peptide plus Cefotaxime 2.81 μg/ml, P=0.0143",now sensitive
same,effect of peptide on the killing effect of Cefotaxime,[6]; 0.34 and 1.0 μg/ml of peptide plus Cefotaxime 2.81 μg/ml,no statistical effect
CC[C@H](C)[C@H](NC(=O)[C@H](CC(C)C)NC(=O)[C@H](C)NC(=O)CNC(=O)CNC(=O)[C@H](CS)NC(=O)[C@H](Cc1ccccc1)NC(=O)[C@H](Cc1c[nH]cn1)NC(=O)[C@H](CCCNC(=N)N)NC(=O)CNC(=O)[C@H](CCC(N)=O)NC(=O)[C@H](CC(N)=O)NC(=O)[C@H](CCCNC(=N)N)NC(=O)[C@H](CCCNC(=N)N)NC(=O)[C@H](CCCNC(=N)N)NC(=O)[C@H](CCCNC(=N)N)NC(=O)COCCOCCNC(=O)COCCOCCN)C(=O)N[C@@H](Cc1c[nH]cn1)C(=O)N[C@@H](C)C(=O)N[C@@H](CCCNC(=N)N)C(=O)N[C@@H](Cc1ccccc1)C(=O)N[C@H](C(=O)N[C@@H](CCSC)C(=O)N[C@H](C(=O)N[C@@H](C)C(=O)N[C@@H](C)C(=O)N[C@@H](CO)C(=O)N[C@@H](CO)C(=O)N[C@@H](Cc1ccccc1)C(=O)N[C@@H](CCC(N)=O)C(=O)N[C@@H](CCCNC(=N)N)C(=O)O)[C@@H](C)O)C(C)C [BCC03-5RMP] (H-[AEEA][AEEA]RRRRNQGRHFCGGALIHARFVMTAASSFQR-OH; N-terminus assumed),Effects of Peptide Compounds on Pseudomonas aeruginosa ATCC ® 27853 ™,[1]; 0.78 μg/ml,87.4
same,Effects of Peptide Compounds on Pseudomonas aeruginosa ATCC ® 27853 ™,[1]; 1.56 μg/ml,96.6
same,Effects of Peptide Compounds on Pseudomonas aeruginosa ATCC ® 27853 ™,[1]; 3.125 μg/ml,98.4
same,Effects of Peptide Compounds on Pseudomonas aeruginosa ATCC ® 27853 ™,[1]; 6.25 μg/ml,99.8
same,Effects of Peptide Compounds on Pseudomonas aeruginosa ATCC ® 27853 ™,[1]; 12.5 μg/ml,99.9
same,Effects of Peptide Compounds on Pseudomonas aeruginosa ATCC ® 27853 ™,[1]; 25 μg/ml,100.0
same,Effects of Peptide Compounds on Pseudomonas aeruginosa ATCC ® 27853 ™,[1]; 50 μg/ml,100.0
same,Effects of Peptide Compounds on Pseudomonas aeruginosa ATCC ® 27853 ™,[1]; 100 μg/ml,100.0
same,Effects of Peptide Compounds on Pseudomonas aeruginosa ATCC ® 27853 ™,[1]; 200 μg/ml,100.0
same,Effects of Peptide Compounds on Escherichia coli ATCC ® 25922 ™,[2]; 0.78 μg/ml,12.3
same,Effects of Peptide Compounds on Escherichia coli ATCC ® 25922 ™,[2]; 1.56 μg/ml,23.0
same,Effects of Peptide Compounds on Escherichia coli ATCC ® 25922 ™,[2]; 3.125 μg/ml,32.8
same,Effects of Peptide Compounds on Escherichia coli ATCC ® 25922 ™,[2]; 6.25 μg/ml,78.7
same,Effects of Peptide Compounds on Escherichia coli ATCC ® 25922 ™,[2]; 12.5 μg/ml,99.3
same,Effects of Peptide Compounds on Escherichia coli ATCC ® 25922 ™,[2]; 25 μg/ml,99.7
same,Effects of Peptide Compounds on Escherichia coli ATCC ® 25922 ™,[2]; 50 μg/ml,99.9
same,Effects of Peptide Compounds on Escherichia coli ATCC ® 25922 ™,[2]; 100 μg/ml,99.9
same,Effects of Peptide Compounds on Escherichia coli ATCC ® 25922 ™,[2]; 200 μg/ml,99.9
same,binding of Pseudomonas LPS,[3],bound Pseudomonas LPS
same,neutralization of LPS: release of TNF-α,[4],attenuate the release of TNF-α

# Reference: patent publication US9603896B2, “Peptide compounds and methods of production and use thereof” (priority 2012, dated 2017)
